{
  "source": "paper PMC3992933",
  "about": "(Peptides, 2014)",
  "molecules": {"B1": {"name": "Human β-defensin 3 (peptide)", "chain": "GIINTLQKYYCRVRGGRCAVLSCLPKEEQIGKCSTRGRKCCRRKK", "modifications": "ends and bridges not checked; cysteine pairing not given here"}},
  "key": {"[1]": {"test_system": "immobilized P. gingivalis hemagglutinin B (HagB)", "settings": "ref [2]; cited from earlier work"}, "[2]": {"test_system": "immobilized adhesins from the periodontal pathogen Porphyromonas gingivalis", "settings": "ref [2], [5], [18]; cited from earlier work"}, "[3]": {"molecular_target": "human serum albumin (HSA) (Homo sapiens, UniProt P02768)", "experiment": "SPR spectroscopy, HBD binding to immobilized human serum albumin", "settings": "in terms of absolute response and kinetic shape of binding"}, "[4]": {"molecular_target": "Bla g2 from the German cockroach (Blattella germanica) (Blattella germanica)", "experiment": "SPR"}},
  "note": "No end group written: not given here.",
  "data": [
    {"molecule": "histatin 5", "values": [
      {"measurement": "binding to immobilized HagB (in words)", "setting": "[1]", "result": "bind specifically"},
      {"measurement": "binding to immobilized adhesins from P. gingivalis (in words)", "setting": "[2]", "result": "specifically bind"}
    ]},
    {"molecule": "HBD1: human β-defensin used as a control β-defensin; purchased from PeproTech, Inc. (DHYNCVSSGGQCLYSACPIFTKIQGTCYRGKAKCCK; ends and bridges not checked; cysteine pairing not given here)", "values": [
      {"measurement": "binding to HSA compared with Bla g2 (in words)", "setting": "[3]", "result": "bound to immobilized HSA similar to Bla g2"}
    ]},
    {"molecule": "B1", "values": [
      {"measurement": "Kd", "setting": "[4]", "result": 5.9, "unit": "µM"}
    ]}
  ]
}
